{
  "source": "patent US20150104392A1",
  "about": "“COMPOSITIONS, BIOMARKERS AND THEIR USE IN THE TREATMENT OF CANCER” (Aptose Biosciences Inc., priority 2013, published 2015)",
  "key": {"[1]": {"system": "Kasumi-1 xenograft", "assay": "Kasumi-1 AML xenograft model", "assay_type": "in vivo", "conditions": "30 mg/kg (15 mg/kg twice per day) i.v., two consecutive days per week, four weeks", "method": "The anti-tumor activity of LOR-253HCl was evaluated in another in vivo animal model of human AML. The human AML cell line Kasumi-1 was implanted subcutaneously into athymic nude mice. Some tumor-bearing mice were treated with LOR-253HCl at 30 mg/kg (15 mg/kg twice per day) for two consecutive days per week for four weeks (the “LOR-253 treatment group”). LOR-253 was administered by intravenous (i.v.) bolus injection as the hydrochloric salt form (LOR-253-HCl) formulated in 20% Polyethylene Glycol 400, 10% Propylene Glycol, and 10% Solutol HS in 60% water.\nThe major endpoint was to observe for tumor growth inhibition after treatment with LOR-253HCl and compare the anti-tumor effects of different dosing schedules. Tumor sizes were measured three times per week from day 10 after the tumor cell inoculation. Tumors were measured in three dimensions using calipers and the volume was expressed in millimeters cubed using the formula: V=0.5 a×b×c, where a, b, and c are the length, width, and height of the tumor, respectively. Mean tumor volumes+/−standard error (SE) were calculated from each measurement and then plotted in a standard graph to compare the anti-tumor efficacy of drug treatment to that of control (FIG. 20). Toxicity was assessed by clinical observations and by measurement of mouse body weight in grams twice per week over the course of the study. Mean body weights were calculated from each measurement and then plotted to compare body weight changes in the drug treatment group to that of control (FIG. 21)."}, "[2]": {"system": "HL-60 xenograft", "assay": "HL-60 AML xenograft model", "assay_type": "in vivo, athymic nude mice", "conditions": "3 cycles", "method": "The human AML cell line HL-60 was implanted subcutaneously into athymic nude mice. Tumor-bearing mice were treated with LOR-253HCl alone or in combination with azacitidine, with azacitidine alone, or with a negative control vehicle. The detailed treatment conditions are as follows. • Group 1: Negative control group. LOR-253HCl control vehicle, 2×/day, 3 cycles of 2 consecutive days, 5 days between cycles, i.v., plus 1% D-mannitol every four days by s.c. injection • Group 2: Azacitidine (in 1% D-mannitol) at 10 mg/kg 1× on days 1, 4, 8, 11, 15 and 18 by subcutaneous (s.c.) injection • Group 3: LOR-253HCl at 15 mg/kg bid for 3 cycles, each cycle is 2 consecutive days of dosing per week with 5 days of non-dosing, i.v., n=9 (2T-5B) • Group 4: LOR-253HCl at 15 mg/kg 2×/day (bid) for 3 cycles, each cycle is 1 day of dosing per week with 6 days of non-dosing, i.v., n=9 (1T-6B) • Group 5: Combination of LOR-253 (2T-5B) and azacitidine. LOR-253HCl at 15 mg/kg bid for 3 cycles, each cycle is 2 consecutive days of dosing per week with 5 days of non-dosing, i.v., n=9 (2T-5B) plus azacitidine at 10 mg/kg 1× every four days by s.c. injection • Group 6: Combination of LOR-253 (1T-6B) and azacitidine. […]\nTumor sizes were measured three times per week."}, "[3]": {"system": "KG-1 xenograft", "assay": "KG-1 AML xenograft model", "assay_type": "in vivo, mice", "conditions": "15 mg/kg iv, bid, 2T/wk; single agent", "method": "The anti-tumor activity of LOR-253HCl was evaluated in yet another in vivo animal model of human AML. Xenograft model mice for AML cell line KG-1 was generated with the same method as in Examples 9 and 10, and were treated with LOR-253HCl or control according to the following regime.\nLOR-253-15 mg/kg-iv, bid, 2T/wk-Day 1"}, "[4]": {"system": "THP-1 xenograft", "assay": "THP-1 AML xenograft model", "assay_type": "in vivo, mice", "conditions": "Group 2: single agent, i.v. Days 1, 2, 8, 9, 15, 16; IP Days 22-25, 29, 30", "method": "The anti-tumor activity of LOR-253HCl, as a single agent and in combination with azacitidine, was evaluated in yet another in vivo animal model of human AML. Xenograft model mice for AML cell line THP-1 was generated with the same method as in Examples 9 and 10, and were treated with LOR-253HCl alone or in combination with azacitidine, with azacitidine alone, or with a negative control vehicle, and tumor sizes were measured as described in Examples 9 and 10. The detailed treatment conditions are shown as follows, and the results are shown in FIG. 26. • Group 1 Control: received i.v. treatments with LOR-253 control vehicle (CV) on Days 1, 2, 8, 9, 15 &16; received subcutaneous (SC) treatments with Azacitidine control vehicle on Days 1, 4, 8, 11, 15, 18, 22, 25, 29 &32; and received intraperitoneal (IP) treatments with LOR-253-CV on Days 22, 23, 24, 25, 29&30. • Group-2-LOR-253: received i.v. treatments on Days 1, 2, 8, 9, 15 &16; received IP treatments on Days 22, 23, 24, 25, 29&30 • Group-3-Azacitidine: received SC treatments on Days 1, 4, 8, 11, 15, 18, 22, 25, 29 &32. • Group-4-Combination: received i.v. treatments with LOR-253 on Days 1, 2, 8, 9, 15 &16; received IP treatments with LOR-253 on Days 22, 23, 24 &25; and received SC-treatment with Azacitidine on Days 1, 4, 8, 11, 15, 18, 22 &25"}, "[5]": {"system": "advanced or metastatic solid tumours", "assay": "Open-label phase 1 study in patients with advanced or metastatic solid tumours", "assay_type": "in vivo, human", "method": "Phase I: This was an open-label, phase 1 study to determine the maximum tolerated dose (MTD) or appropriate target dose if MTD not reached to identify the recommended phase 2 dose of LOR-253HCl in patients with advanced or metastatic solid tumours. In the first set of doses, LOR-253HCl was given in ascending doses until the maximum administered dose or appropriate target dose is reached. In the other set of doses, LOR-253HCl was given in ascending doses starting from 20 mg/m^2 until the maximum administered dose or appropriate target dose is reached. Patient as treated on LOR-253HCl for 2 cycles for the evaluation. • Other Name: No other names are used. • Study Type: Interventional • Study Design: Endpoint Classification: Safety Study • Intervention Model: Single Group Assignment • Masking: Open Label • Primary Purpose: Treatment • Official Title: Open-Label, Phase 1 Study of LOR-253HCl in Patients With Advanced or Metastatic Solid Tumours\n• To determine the maximum tolerated dose (MTD) or appropriate target dose if MTD not reached to identify the recommended phase 2 dose of LOR-253HCl in patients with advanced or metastatic solid tumours. [Time Frame: 8 weeks]\n• To characterize the safety profile of LOR-253HCl when administered to patients with advanced or metastatic solid tumours. [Time Frame: 8 weeks]\n• 1. Male or female 18 years of age or older. • 2. Histologically confirmed diagnosis of solid tumor for which no effective therapy is available or that is unresponsive to conventional therapy. • 3. Meet laboratory parameter requirements at study entry.\n• 1. Chemotherapy, radiotherapy, biologic therapy, immunotherapy or any other investigational drugs within 21 days of beginning study treatment with LOR-253HCl. • 2. A hematologic malignancy. • 3. A history of brain or other central nervous system metastases. • 4. Have a presence of a significant infection. • 5. Clinically significant autoimmune disease. • 6. Uncontrolled intercurrent illness. • 7. With iron or copper overload syndromes. • 8. Pregnancy or breast feeding."}, "[6]": {"assay": "Pharmacokinetics, serum level after i.v. bolus", "assay_type": "in vivo", "conditions": "CD-1 nude mice; i.v. bolus 1, 5 and 15 mg/kg", "method": "To study the pharmacokinetic (PK) […], CD-1 nude mice were treated by i.v. bolus injections of LOR-253HCl at 1, 5, and 15 mg/kg. The serum level of LOR-253 was measured."}},
  "data": [
    {"smiles": "Cc1[nH]c2ccc(F)cc2c1-c1nc2c3cccnc3c3ncccc3c2[nH]1", "note": "[LOR-253HCl]", "values": [
      {"measurement": "body weight", "setting": "[1]", "value": "did not show body weight loss"},
      {"measurement": "overt signs of toxicity", "setting": "[1]", "value": "did not show other overt signs of toxicity"},
      {"measurement": "tumor growth inhibition vs vehicle control", "setting": "[1]; p=0.028 Student's t-test", "value": "statistically significantly increased inhibitory effect"},
      {"measurement": "tumor growth inhibition", "setting": "[2]; Group 3: 15 mg/kg bid i.v., two consecutive days per week (2T-5B)", "value": "inhibited growth of HL-60 tumors to approximately the same extent as or slightly more than azacitidine alone"},
      {"measurement": "tumor growth inhibition", "setting": "[2]; Group 4: 15 mg/kg bid i.v., one day per week (1T-6B)", "value": "inhibited growth of HL-60 tumors to approximately the same extent as or slightly more than azacitidine alone"},
      {"measurement": "tumor growth inhibition", "setting": "[3]", "value": "significant tumor growth inhibition"},
      {"measurement": "tumor growth inhibition", "setting": "[4]", "value": "inhibited growth of THP-1 tumors to about the same extent as or slightly more than azacitidine alone"},
      {"measurement": "Most common AE and SAE", "setting": "[5]; N=27 patients, 7 dose levels", "value": "Fatigue and 1 case of reversible hypophosphatemia"},
      {"measurement": "Safety profile", "setting": "[5]; N=27 patients, 7 dose levels", "value": "Excellent Safety Profile"},
      {"measurement": "tumor response in individual patient (FIG. 12)", "setting": "[5]; patient with NSCLC (poorly differentiated adenocarcinoma), extensive metastases, refractory", "value": "Tumor shrinkage"},
      {"measurement": "RECIST partial response", "setting": "[5]; patients with advanced solid tumors", "value": "No RECIST PR"},
      {"measurement": "Stable Disease, evaluable patients", "setting": "[5]; patients with advanced solid tumors, dose-escalating, 7 dose levels", "value": 41, "unit": "%"},
      {"measurement": "serum level of LOR-253", "setting": "[6]", "value": "dose related increase"}
    ]}
  ]
}
